± gives the standard deviation of the averaged measurements.
Experiments:
Assay in all cases: level (log10 ratio to DMSO vehicle control); higher = higher biomarker level / cell amount than vehicle control
[1] = compound: OCCC(F)(F)C(F)(F)C(F)(F)C(F)(F)F [4:2 Fluorotelomer alcohol] (in DMSO)
Description: (§1)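 BioMAP Diversity Plus panel of 12 human primary cell co-culture systems (3C, 4H, LPS, SAg, BT, BF4T, BE3C, CASM3C, HDF3CGF, KF3CT, MyoF, Mphg). Compounds were added 1 h before stimulation and left for 24 h (MyoF 48 h; BT 72 h for soluble read-outs or 6 d for IgG). Biomarkers were read by ELISA, cytotoxicity by SRB, PBMC viability and proliferation by Alamar Blue. Each well value was divided by the mean of 8 DMSO control wells on the same plate and log10 transformed; duplicate blinded samples were tested at 4 concentrations.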

[2] = compound: O=S(=O)(O)C(F)(F)C(F)(F)C(F)(F)C(F)(F)C(F)(F)C(F)(F)C(F)(F)F [Perfluoroheptanesulfonic acid] (in DMSO)
Description: as §1

[3] = compound: O=C(O)C(F)(OC(F)(F)C(F)(OC(F)(F)C(F)(OC(F)(F)C(F)(F)C(F)(F)F)C(F)(F)F)C(F)(F)F)C(F)(F)F [Perfluoro-(2,5,8-trimethyl-3,6,9-trioxadodecanoic)acid] (in DMSO)
Description: as §1

[4] = compound: O=S(=O)(O)CCC(F)(F)C(F)(F)C(F)(F)C(F)(F)C(F)(F)C(F)(F)C(F)(F)C(F)(F)F [8:2 Fluorotelomer sulfonic acid] (in DMSO)
Description: as §1

Perfluorononanoic acid = compound: O=C(O)C(F)(F)C(F)(F)C(F)(F)C(F)(F)C(F)(F)C(F)(F)C(F)(F)C(F)(F)F [Perfluorononanoic acid] (in DMSO)
Description: as §1

[5] = compound: C=C(C)C(=O)OCCC(F)(F)C(F)(F)C(F)(F)C(F)(F)C(F)(F)C(F)(F)C(F)(F)C(F)(F)F [8:2 Fluorotelomer methacrylate] (in DMSO)
Description: as §1

Perfluoroundecanoic acid = compound: O=C(O)C(F)(F)C(F)(F)C(F)(F)C(F)(F)C(F)(F)C(F)(F)C(F)(F)C(F)(F)C(F)(F)C(F)(F)F [Perfluoroundecanoic acid] (in DMSO); conditions: 6700 nM
Description: as §1

Test System | level (log10) ([1]; 6700 nM) | level (log10) ([1]; 20000 nM) | level (log10) ([1]; 60000 nM) | level (log10) ([2]; 1500 nM) | level (log10) ([2]; 4400 nM) | level (log10) ([2]; 13000 nM) | level (log10) ([2]; 40000 nM) | level (log10) ([3]; 1100 nM) | level (log10) ([3]; 3300 nM) | level (log10) ([3]; 10000 nM) | level (log10) ([4]; 6700 nM) | level (log10) ([4]; 20000 nM) | level (log10) ([4]; 60000 nM) | level (log10) (Perfluorononanoic acid; 6700 nM) | level (log10) (Perfluorononanoic acid; 20000 nM) | level (log10) ([5]; 6700 nM) | level (log10) ([5]; 20000 nM) | level (log10) (Perfluoroundecanoic acid)
3C:CCL2/MCP-1 | -0.0545 ± 0.074 | -0.0225 ± 0.044 | 0.032 ± 0.011 | -0.0035 ± 0.005 | -0.0065 ± 0.0021 | 0.002 ± 0.0014 | 0.01 ± 0.0014 | -0.0075 ± 0.0035 | -0.0195 ± 0.00071 | 0.001 ± 0.034 | -0.01 ± 0.0085 | -0.0335 ± 0.021 | -0.0185 ± 0.005 | -0.014 ± 0.038 | -0.0045 ± 0.016 | 0.0115 ± 0.012 | 0.009 ± 0.0014 | 0.009 ± 0.0042
3C:CD54/ICAM-1 | -0.025 ± 0.018 | -0.018 ± 0.017 | 0.006 ± 0.0042 | 0.0085 ± 0.005 | -0.003 ± 0.0042 | -0.001 ± 0.013 | -0.0015 ± 0.0021 | 0.007 ± 0.02 | -0.0005 ± 0.00071 | 0.0185 ± 0.0064 | -0.008 ± 0.0099 | 0.003 ± 0.013 | 0.034 ± 0.0042 | -0.028 ± 0.0014 | -0.023 ± 0.0099 | -0.0125 ± 0.016 | -0.0095 ± 0.025 | -0.009 ± 0.0042
3C:CD62E/E-Selectin | -0.019 ± 0.021 | -0.012 ± 0.0014 | -0.0105 ± 0.0078 | -0.01 ± 0.021 | -0.018 | -0.024 ± 0.017 | 0.005 ± 0.0014 | -0.0005 ± 0.016 | -0.0035 ± 0.005 | 0.019 ± 0.0071 | 0.013 ± 0.025 | 0.0385 ± 0.0021 | 0.0715 ± 0.0078 | -0.0195 ± 0.0078 | -0.013 ± 0.013 | -0.024 ± 0.0085 | -0.0225 ± 0.005 | -0.0135 ± 0.04
3C:CD106/VCAM-1 | -0.0205 ± 0.016 | -0.011 ± 0.011 | -0.0095 ± 0.011 | 0.001 ± 0.0042 | -0.011 ± 0.0014 | -0.016 ± 0.0028 | -0.0185 ± 0.00071 | -0.0075 ± 0.022 | -0.0055 ± 0.028 | -0.0005 ± 0.028 | 0.002 ± 0.0014 | 0.009 ± 0.0028 | 0.019 ± 0.016 | -0.0205 ± 0.016 | -0.0195 ± 0.023 | -0.0205 ± 0.019 | -0.0445 ± 0.015 | -0.001 ± 0.044
3C:CD141/Thrombomodulin | -0.0175 ± 0.013 | -0.001 ± 0.0085 | -0.0005 ± 0.019 | 0.014 ± 0.013 | -0.0085 ± 0.028 | -0.035 ± 0.064 | -0.042 ± 0.028 | -0.0035 ± 0.026 | -0.0185 ± 0.029 | -0.01 ± 0.035 | -0.003 ± 0.024 | -0.011 ± 0.034 | 0.0285 ± 0.037 | -0.0225 ± 0.00071 | -0.0285 ± 0.011 | -0.031 ± 0.055 | -0.033 ± 0.02 | -0.023 ± 0.047
3C:CD142/Tissue Factor | -0.016 ± 0.018 | -0.04 ± 0.045 | -0.0375 ± 0.00071 | 0.0375 ± 0.011 | 0.021 ± 0.031 | 0.048 ± 0.048 | 0.0665 ± 0.1 | -0.013 ± 0.0042 | -0.0055 ± 0.015 | -0.005 ± 0.013 | -0.018 ± 0.065 | 0.001 ± 0.052 | -0.0295 ± 0.046 | -0.0555 ± 0.0021 | -0.0455 ± 0.032 | 0.0445 ± 0.047 | 0.0595 ± 0.022 | -0.008 ± 0.016
BE3C:Keratin 8/18 | -0.034 ± 0.057 | -0.02 ± 0.02 | 0.0085 ± 0.026 | -0.013 ± 0.035 | -0.0065 ± 0.037 | -0.015 ± 0.033 | -0.0185 ± 0.033 | -0.0165 ± 0.028 | -0.0085 ± 0.022 | -0.001 ± 0.038 | 0.007 ± 0.0042 | 0.017 ± 0.0085 | 0.043 ± 0.014 | -0.0335 ± 0.04 | -0.0365 ± 0.032 | -0.0195 ± 0.037 | -0.008 ± 0.071 | -0.045 ± 0.023
BE3C:MMP-1 | -0.023 ± 0.078 | -0.023 ± 0.058 | 0.0145 ± 0.0064 | 0.011 ± 0.018 | 0.019 ± 0.023 | 0.05 ± 0.021 | 0.133 ± 0.022 | -0.0135 ± 0.00071 | -0.0175 ± 0.018 | 0.0135 ± 0.022 | 0.048 ± 0.024 | 0.1715 ± 0.00071 | 0.232 ± 0.027 | 0.05 ± 0.059 | 0.221 ± 0.035 | 0.0135 ± 0.012 | -0.003 ± 0.0057 | 0.135 ± 0.011
BE3C:MMP-9 | 0.0015 ± 0.0078 | -0.014 ± 0.013 | 0.009 ± 0.011 | -0.0015 ± 0.032 | -0.0125 ± 0.081 | -0.025 ± 0.041 | 0.0055 ± 0.04 | -0.0155 ± 0.0092 | -0.011 ± 0.0071 | -0.0145 ± 0.011 | 0.0045 ± 0.0064 | 0.0325 ± 0.035 | 0.015 ± 0.031 | -0.0075 ± 0.00071 | 0.0055 ± 0.011 | -0.0125 ± 0.06 | -0.024 ± 0.085 | -0.139 ± 0.013
BE3C:PAI-I | -0.0355 ± 0.023 | -0.03 ± 0.045 | 0.0365 ± 0.016 | 0.016 ± 0.044 | 0.047 ± 0.057 | 0.0385 ± 0.06 | 0.033 ± 0.078 | -0.0265 ± 0.036 | -0.0315 ± 0.022 | 0.006 ± 0.064 | 0.044 ± 0.014 | 0.126 ± 0.026 | 0.0955 ± 0.011 | -0.013 ± 0.042 | -0.101 ± 0.019 | 0.001 ± 0.041 | -0.013 ± 0.076 | -0.292 ± 0.023
BE3C:SRB | -0.004 | -0.001 ± 0.0014 | -0.0005 ± 0.005 | 0.015 ± 0.014 | -0.005 ± 0.0099 | -0.0005 ± 0.0021 | -0.0055 ± 0.0064 | -0.0015 ± 0.0021 | -0.0075 ± 0.0035 | 0.0105 ± 0.015 | -0.007 ± 0.0071 | -0.017 | -0.025 ± 0.0085 | -0.0015 ± 0.005 | -0.04 ± 0.0028 | -0.003 | 0.0025 ± 0.005 | -0.0555 ± 0.012
BE3C:tPA | -0.0115 ± 0.0035 | -0.015 | 0.013 ± 0.016 | 0.023 ± 0.041 | 0.0415 ± 0.073 | 0.066 ± 0.1 | 0.0595 ± 0.086 | -0.0035 ± 0.025 | 0.0075 ± 0.023 | 0.017 ± 0.04 | 0.0755 ± 0.021 | 0.0535 ± 0.0064 | -0.021 ± 0.0099 | -0.012 ± 0.0042 | -0.172 ± 0.023 | -0.0125 ± 0.067 | -0.036 ± 0.082 | 0.003 ± 0.0028
BE3C:uPA | -0.032 ± 0.065 | -0.014 ± 0.058 | 0.014 ± 0.027 | -0.0055 ± 0.023 | -0.004 ± 0.034 | -0.0235 ± 0.032 | -0.018 ± 0.038 | 0.0025 ± 0.0064 | -0.011 ± 0.0014 | -0.0025 ± 0.019 | 0.006 ± 0.0071 | 0.0055 ± 0.0035 | -0.002 ± 0.0028 | -0.0445 ± 0.08 | -0.0195 ± 0.076 | -0.0145 ± 0.012 | -0.0145 ± 0.059 | 0.0255 ± 0.00071
CASM3C:CCL2/MCP-1 | -0.023 ± 0.038 | -0.0055 ± 0.039 | -0.008 ± 0.05 | -0.007 ± 0.088 | -0.043 ± 0.024 | -0.034 ± 0.016 | -0.021 ± 0.0028 | 0 ± 0.0042 | -0.008 ± 0.0028 | 0.0055 ± 0.005 | -0.0095 ± 0.00071 | -0.003 ± 0.0057 | 0.016 ± 0.04 | -0.0295 ± 0.049 | -0.0085 ± 0.054 | -0.011 ± 0.0099 | 0.0025 ± 0.037 | 0.0065 ± 0.015
CASM3C:CD87/uPAR | 0.0005 ± 0.023 | 0.007 ± 0.013 | -0.003 ± 0.021 | -0.028 ± 0.042 | 0.0045 ± 0.049 | -0.0165 ± 0.049 | -0.0555 ± 0.035 | 0.0175 ± 0.022 | 0.0015 ± 0.018 | 0.0265 ± 0.0035 | 0.025 ± 0.0099 | 0.022 ± 0.0014 | -0.0055 ± 0.016 | -0.02 ± 0.0071 | 0.023 | -0.006 ± 0.05 | -0.022 ± 0.033 | -0.0285 ± 0.0078

From the supplement of paper PMC10331698
